{"source": "patent US9012413B2", "about": "“FGF receptor-activating N-acyl octasaccharides, preparation thereof, and therapeutic use thereof” (Sanofi, priority 2009, dated 2015)", "key": {"BALB/c J mice": {"test_system": "BALB/c J mice", "test": "Model of cellulose implant in mice (haemoglobin concentration in the implant, angiogenesis)", "type": "in vivo", "protocol": "This model is an adaptation of the model described by Andrade et al. (Microvascular Research, 1997, 54, 253-61) for testing pharmacological products capable of activating the onset of angiogenesis.\nThe animals (white consanguineous BALB/c J mice) are anaesthetized with a xylazine (Rompun®, 10 mg/kg)/ketamine (Imalgene® 1000, 100 mg/kg) mixture intraperitoneally. The animal's back is shaved and disinfected with Hexomedine®. An air pocket is created subcutaneously on the mouse's back by injecting 5 ml of sterile air. An incision of about 2 cm at the top of the animal's back is made in order to introduce a sterile cellulose implant (disk 1 cm in diameter, 2 mm thick, Cellspon® ref. 0501) impregnated with 50 μl of sterile solution containing the test product. […]\nSeven days after inserting the sponge, the mice are sacrificed by means of a lethal dose of pentobarbital sodium (CEVA Santé Animale), administered intraperitoneally. […] On the day of the assay, the tubes are again centrifuged after thawing and the haemoglobin concentration is measured with the Drabkin reagent (Sigma, volume for volume) by reading on a spectrophotometer at 405 nm against a standard range of bovine haemoglobin (Sigma).\nThe haemoglobin concentration in each sample is expressed in mg/ml from the polynomial regression produced from the range. The results are expressed as a mean value (±sem) for each group. […]"}, "[1]": {"test": "Pharmacokinetics after cutaneous administration to mice, plasma LC/MS-MS", "type": "in vivo", "details": "OF1 or C57/BL6 mice, 30 mg/kg, single administration", "protocol": "The pharmacokinetic profile of the compounds according to the invention is evaluated after cutaneous administration, to OF1 or C57/BL6 mice, at a concentration of 30 mg/kg. The systemic exposure of the compounds is evaluated after a single administration to the animal anaesthetized beforehand with pentobarbital. The blood is collected from the vena cava and then transferred into plastic tubes containing lithium heparin. After centrifugation (2000×g for 10 minutes at 8° C.), the concentration of the compounds in the plasma is quantified by LC/MS-MS."}}}
{"substance": "Methyl (sodium 2-O-sodium sulfonato-α-L-idopyranosyluronate)-(1→4)-(2-acetamido-2-deoxy-6-O-sodium sulfonato-α-D-glucopyranosyl)-[(1→4)-(sodium 2-O-sodium sulfonato-α-L-idopyranosyluronate)-(1→4)-(2-acetamido-2-deoxy-6-O-sodium sulfonato-α-D-glucopyranosyl)]2-(1→4)-(sodium 2-O-sodium sulfonato-α-L-idopyranosyluronate)-(1→4)-2-acetamido-2-deoxy-6-O-sodium sulfonato-α-D-glucopyranoside [Compound 7]", "values": [{"measurement": "specific activity in the cellulose implant model (active at)", "setting": "BALB/c J mice; BALB/c J mice, subcutaneous cellulose implant, haemoglobin assay after seven days", "value": 15, "unit": "ng/site"}, {"measurement": "activity relative to the fully sulfated analogue (all —NH-acyl groups replaced with —NH—SO3— groups)", "setting": "BALB/c J mice; cellulose implant in mice", "value": "greater than 21%"}, {"measurement": "AUC (0-Clast)", "setting": "[1]; plasma", "value": "22 000 ng · h/mL"}, {"measurement": "T1/2", "setting": "[1]; plasma", "value": 24, "unit": "min"}, {"measurement": "Plasma conc., t = 4 h", "setting": "[1]; plasma at 4 hours", "value": 425, "unit": "ng/mL"}]}
